This passage reports Ki results from patent publication US8546377B2 (AbbVie Inc., priority 2009, dated 2013).

The experiment addresses T1, h-5-HT6 receptor (Homo sapiens, UniProt P50406).
T1 construct: expressed in transfected cells; host or cells: HEK293 cells (membrane preparation)
Briefly: Human 5-HT6 receptor radioligand binding assay ([3H]-LSD, HEK293 membranes). The settings on record: HEK293 membranes, 1 nM [3H]-lysergic acid diethylamide, 3.5 hours at room temperature; read-out: Ki (μM), 5-HT6 Agonist Site Radioligand Binding. On the procedure: (iv) Human 5-HT6 Receptor Radioligand Binding Assay
Preparation of Membranes by Ultrasonic Treatment and Differential Centrifugation
Cells from stable clonal cell lines expressing the corresponding receptor (5-HT6) were washed with PBS (without Ca^++, Mg^++) and harvested in PBS with 0.02% EDTA. The cells were collected by centrifugation at 500 g for 10 minutes at 4° C., washed with PBS and centrifuged (500 g, 10 minutes at 4° C.). The pellets were stored at −80° C. until use. For membrane preparation, the thawed cell pellet was resuspended in ice-cold sucrose buffer (0.25 M sucrose, 10 mM HEPES (pH 7.4), 1 mM phenylmethylsulfonyl fluoride (PMSF) in DMSO, 5 μg/ml Pepstatin-A, 3 mM EDTA, 0.025% Bacitracin) and homogenized with a Branson Sonifier W-250 (Settings: Timer 4; Output Control 3; Duty Cycle constant; 2 to 3 cycles). Cell disruption was checked with the aid of a microscope. Remaining unbroken cells were pelleted at 1,000 g for 10 minutes at 4° C. The sucrose buffer supernatant was then centrifuged at 60,000 g for 1 hour at 4° C. (Beckman Ultrazentrifuge XL 80). The pellet was resuspended in 30 mL of ice-cold Tris buffer (20 mM TRIS (pH 7.4), 5 μg/mL Pepstatin A, 0.1 mM PMSF, 3 mM EDTA) by pipetting through a 10 mL serological pipet and centrifuged for 1 hour at 4° C. at 60,000 g. A final resuspension was performed in a small volume of ice-cold Tris buffer (see above) by pressing through a serological pipet followed by ultrasonic treatment with a Branson Sonifier W-250 (Settings: Timer 1; Output Control 3; Duty Cycle constant; 1 cycle). Protein concentration was determined (BCA-Kit; Pierce) and aliquots stored at −80° C. or in liquid nitrogen for long-term storage.
Receptor Binding Experiments
All receptor binding experiments were carried out in the corresponding assay buffer in a total volume of 200 μL in the presence of various concentrations of test compound (10^−5 M to 10^−9 M, tenfold serial dilution, duplicate determinations). The assays were terminated by filtration on polyethylenimine (PEI 0.1% or 0.3%) presoaked Packard Unifilter Plates (GF/C or GF/B) with a Tomtec MachIII U 96 well-plate harvester. After the plates had been dried for 2 hours at 55° C. in a drying chamber scintillation cocktail (BetaPlate Scint; PerkinElmer) was added. Radioactivity was measured in a Microbeta Trilux two hours after the addition of the scintillation mixture.
5-HT6 Receptor Binding Assay
HEK293 cells stably expressing the h-5-HT6 receptor (NCBI Reference Sequence XM 001435) were cultured in RPMI1640 medium supplemented with 25 mM HEPES, 10% fetal calf serum and 1-2 mM glutamine. The membrane preparation was performed as described above. […] On the day of the assay, the membranes were thawed, diluted in assay buffer (50 mM Tris-HCl, 5 mM CaCl2, 0.1% ascorbic acid, 10 μM pargyline, pH 7.4) to a concentration of 8 μg protein/assay and homogenized by gentle vortexing. […] Non-specific binding was defined with 1 μM methiothepin. The binding reaction was carried out for 3.5 hours at room temperature. During the incubation, the plates were shaken on a plate shaker at 100 rpm and terminated by filtration on Packard Unifilter GF/C (0.1% PEI) plates, followed by 2 wash cycles with ice-cold 50 mM Tris-HCl, 5 mM CaCl2.
Data derived from liquid scintillation counting were analyzed by iterative non-linear regression analysis with the use of the Statistical Analysis System (SAS): a program similar to “LIGAND” as described by Munson and Rodbard (Anal. Biochem. 1980, 107, 220-239). Fitting was performed according to formulae described by Feldman (Anal. Biochem. 1972, 48, 317-338). IC50, nH and Ki values were expressed as geometrical mean.
The results of the receptor binding studies are expressed as receptor binding constants Ki(5-HT6) as described herein before, and given in Table 5.

T1 sequence (P50406 whole entry): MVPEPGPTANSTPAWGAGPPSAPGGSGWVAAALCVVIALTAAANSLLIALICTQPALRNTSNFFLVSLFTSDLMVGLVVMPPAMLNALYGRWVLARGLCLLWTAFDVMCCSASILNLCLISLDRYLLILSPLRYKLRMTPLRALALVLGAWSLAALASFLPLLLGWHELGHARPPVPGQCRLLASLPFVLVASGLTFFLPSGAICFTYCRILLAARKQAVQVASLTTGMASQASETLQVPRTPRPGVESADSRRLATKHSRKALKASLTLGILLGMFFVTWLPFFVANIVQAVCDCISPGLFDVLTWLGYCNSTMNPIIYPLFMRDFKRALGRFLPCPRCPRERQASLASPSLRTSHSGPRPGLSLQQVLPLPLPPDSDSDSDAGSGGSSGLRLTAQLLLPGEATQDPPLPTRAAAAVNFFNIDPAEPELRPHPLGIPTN

`Cc1cc(C)cc(S(=O)(=O)Nc2ccc3c(c2)NC(=O)CC2CNCCN32)c1` (stereo not shown) [Example 129, 3,5-dimethyl-N-(6-oxo-1,2,3,4,4a,5,6,7-octahydropyrazino[1,2-a][1,5]benzodiazepin-9-yl)benzenesulfonamide]: the Ki – broadly, the equilibrium dissociation constant of an inhibitor or competing ligand from its target – amounted to 0.0132 µM. To `O=C1CC2CNCCN2c2ccc(NS(=O)(=O)c3ccccc3OC(F)(F)F)cc2N1` (stereo not shown) [Example 130, N-(6-oxo-1,2,3,4,4a,5,6,7-octahydropyrazino[1,2-a][1,5]benzodiazepin-9-yl)-2-(trifluoromethoxy)benzenesulfonamide] belongs 0.0181 µM; to `Cc1ccc(C)c(S(=O)(=O)Nc2ccc3c(c2)NC(=O)CC2CNCCN32)c1` (stereo not shown) [Example 125, 2,5-dimethyl-N-(6-oxo-1,2,3,4,4a,5,6,7-octahydropyrazino[1,2-a][1,5]benzodiazepin-9-yl)benzenesulfonamide], 0.0156 µM.

In the case of `O=C1CC2CNCCN2c2ccc(NS(=O)(=O)c3cccc(Cl)c3)cc2N1` (stereo not shown) [Example 101, 3-chloro-N-(6-oxo-1,2,3,4,4a,5,6,7-octahydropyrazino[1,2-a][1,5]benzodiazepin-9-yl)benzenesulfonamide], the Ki came to 0.0223 µM. In the case of `O=C1CC2CNCCN2c2ccc(NS(=O)(=O)c3c(F)cccc3F)cc2N1` (stereo not shown) [Example 123, 2,6-difluoro-N-(6-oxo-1,2,3,4,4a,5,6,7-octahydropyrazino[1,2-a][1,5]benzodiazepin-9-yl)benzenesulfonamide] it was 0.0583 µM; in that of `COc1cccc(S(=O)(=O)Nc2ccc3c(c2)NC(=O)CC2CNCCN32)c1` (stereo not shown) [Example 107, 3-methoxy-N-(6-oxo-1,2,3,4,4a,5,6,7-octahydropyrazino[1,2-a][1,5]benzodiazepin-9-yl)benzenesulfonamide], 0.022 µM. To `O=C1CC2CNCCN2c2ccc(NS(=O)(=O)c3ccccc3F)cc2N1` (stereo not shown) [Example 103, 2-fluoro-N-(6-oxo-1,2,3,4,4a,5,6,7-octahydropyrazino[1,2-a][1,5]benzodiazepin-9-yl)benzenesulfonamide] belongs 0.0299 µM. In the case of `O=C1CC2CNCCN2c2ccc(NS(=O)(=O)c3ccc(F)cc3)cc2N1` (stereo not shown) [Example 105, 4-fluoro-N-(6-oxo-1,2,3,4,4a,5,6,7-octahydropyrazino[1,2-a][1,5]benzodiazepin-9-yl)benzenesulfonamide] it was 0.0208 µM; in that of `O=C1CC2CNCCN2c2ccc(NS(=O)(=O)c3ccc(Cl)cc3)cc2N1` (stereo not shown) [Example 102, 4-chloro-N-(6-oxo-1,2,3,4,4a,5,6,7-octahydropyrazino[1,2-a][1,5]benzodiazepin-9-yl)benzenesulfonamide], 0.0092 µM; in that of `O=C1CC2CNCCN2c2ccc(NS(=O)(=O)c3cccc(F)c3)cc2N1` (stereo not shown) [Example 104, 3-fluoro-N-(6-oxo-1,2,3,4,4a,5,6,7-octahydropyrazino[1,2-a][1,5]benzodiazepin-9-yl)benzenesulfonamide], 0.0596 µM.

Consider `N#Cc1cccc(S(=O)(=O)Nc2ccc3c(c2)NC(=O)CC2CNCCN32)c1` (stereo not shown) [Example 122, 3-cyano-N-(6-oxo-1,2,3,4,4a,5,6,7-octahydropyrazino[1,2-a][1,5]benzodiazepin-9-yl)benzenesulfonamide], for which the Ki was 0.19 µM. As to `O=C1CC2CNCCN2c2ccc(NS(=O)(=O)c3ccc(Cl)s3)cc2N1` (stereo not shown) [Example 127, 5-chloro-N-(6-oxo-1,2,3,4,4a,5,6,7-octahydropyrazino[1,2-a][1,5]benzodiazepin-9-yl)thiophene-2-sulfonamide], the Ki came out at 0.0443 µM. Consider `N#Cc1ccc(S(=O)(=O)Nc2ccc3c(c2)NC(=O)CC2CNCCN32)cc1` (stereo not shown) [Example 121, 4-cyano-N-(6-oxo-1,2,3,4,4a,5,6,7-octahydropyrazino[1,2-a][1,5]benzodiazepin-9-yl)benzenesulfonamide], for which the Ki came out at 0.621 µM. To `O=C1CC2CNCCN2c2ccc(NS(=O)(=O)c3cccc(OC(F)(F)F)c3)cc2N1` (stereo not shown) [Example 120, N-(6-oxo-1,2,3,4,4a,5,6,7-octahydropyrazino[1,2-a][1,5]benzodiazepin-9-yl)-3-(trifluoromethoxy)benzenesulfonamide] belongs 0.0183 µM. To `O=C1CC2CNCCN2c2ccc(NS(=O)(=O)c3ccccc3C(F)(F)F)cc2N1` (stereo not shown) [Example 126, N-(6-oxo-1,2,3,4,4a,5,6,7-octahydropyrazino[1,2-a][1,5]benzodiazepin-9-yl)-2-(trifluoromethyl)benzenesulfonamide] belongs 0.0234 µM; to `O=C1CC2CNCCN2c2ccc(NS(=O)(=O)c3c(Cl)cccc3Cl)cc2N1` (stereo not shown) [Example 119, 2,6-dichloro-N-(6-oxo-1,2,3,4,4a,5,6,7-octahydropyrazino[1,2-a][1,5]benzodiazepin-9-yl)benzenesulfonamide], 0.0378 µM. For the compound `O=C1CC2CNCCN2c2ccc(NS(=O)(=O)c3ccccc3-c3ccccc3)cc2N1` (stereo not shown) [Example 97, N-(6-oxo-1,2,3,4,4a,5,6,7-octahydropyrazino[1,2-a][1,5]benzodiazepin-9-yl)biphenyl-2-sulfonamide], the inhibition constant Ki was 0.0024 µM. In the case of `O=C1CC2CNCCN2c2ccc(NS(=O)(=O)c3ccc4ccccc4c3)cc2N1` (stereo not shown) [Example 128, N-(6-oxo-1,2,3,4,4a,5,6,7-octahydropyrazino[1,2-a][1,5]benzodiazepin-9-yl)naphthalene-2-sulfonamide] it was 0.0043 µM; in that of `COc1ccc(S(=O)(=O)Nc2ccc3c(c2)NC(=O)CC2CNCCN32)cc1` (stereo not shown) [Example 108, 4-methoxy-N-(6-oxo-1,2,3,4,4a,5,6,7-octahydropyrazino[1,2-a][1,5]benzodiazepin-9-yl)benzenesulfonamide], 0.0669 µM.

Turning to `Cc1cccc(S(=O)(=O)Nc2ccc3c(c2)NC(=O)CC2CNCCN32)c1` (stereo not shown) [Example 100, 3-methyl-N-(6-oxo-1,2,3,4,4a,5,6,7-octahydropyrazino[1,2-a][1,5]benzodiazepin-9-yl)benzenesulfonamide], the Ki came out at 0.0475 µM. To `O=C1CC2CNCCN2c2ccc(NS(=O)(=O)c3cccc4ccccc34)cc2N1` (stereo not shown) [Example 124, N-(6-oxo-1,2,3,4,4a,5,6,7-octahydropyrazino[1,2-a][1,5]benzodiazepin-9-yl)napthalene-1-sulfonamide] belongs 0.0068 µM; to `COc1ccccc1S(=O)(=O)Nc1ccc2c(c1)NC(=O)CC1CNCCN21` (stereo not shown) [Example 106, 2-methoxy-N-(6-oxo-1,2,3,4,4a,5,6,7-octahydropyrazino[1,2-a][1,5]benzodiazepin-9-yl)benzenesulfonamide], 0.026 µM; to `Cc1ccc(S(=O)(=O)Nc2ccc3c(c2)NC(=O)CC2CNCCN32)cc1` (stereo not shown) [Example 99, 4-methyl-N-(6-oxo-1,2,3,4,4a,5,6,7-octahydropyrazino[1,2-a][1,5]benzodiazepin-9-yl)benzenesulfonamide], 0.0221 µM. Consider `O=C1CC2CNCCN2c2ccc(NS(=O)(=O)c3cccs3)cc2N1` (stereo not shown) [Example 109, N-(6-oxo-1,2,3,4,4a,5,6,7-octahydropyrazino[1,2-a][1,5]benzodiazepin-9-yl)thiophene-2-sulfonamide], for which the Ki worked out at 0.0556 µM. Regarding `Cc1ccccc1S(=O)(=O)Nc1ccc2c(c1)NC(=O)CC1CNCCN21` (stereo not shown) [Example 98, 2-methyl-N-(6-oxo-1,2,3,4,4a,5,6,7-octahydropyrazino[1,2-a][1,5]benzodiazepin-9-yl)benzenesulfonamide], the Ki amounted to 0.0224 µM.
